Assay results taken from patent US8853392B2, “Benzamide mGluR5 positive allosteric modulators and methods of making and using same” (Vanderbilt University, priority 2007, dated 2014).
Like-named read-outs stand apart in the source and are kept apart here.

Molecular target: T1, rat mGluR5 (Rattus norvegicus, UniProt P31424)
T1 construct: expressed in transfected cells; host or cells: human embryonic kidney (HEK) cells
Assay: potentiation of mGluR5 response to glutamate, Ca2+ fluorescence (FDSS) in HEK cells transfected with rat mGluR5
Assay type: cell-based
Conditions: unit inferred
Procedure: Human embryonic kidney (HEK) cells transfected with rat mGluR5 were plated in clear bottom assay plates for assay in a Functional Drug Screening System (FDSS). The cells were loaded with a Ca^2+-sensitive fluorescent dye (e.g., Fluo-4), and the plates were washed and placed in the FDSS instrument. After establishment of a fluorescence baseline for twelve seconds, the compounds of the present invention were added to the cells, and the response in cells was measured. Five minutes later, an mGluR5 agonist (e.g., glutamate, 3,5-dihydroxyphenylglycine, or quisqualate) was added to the cells, and the response of the cells was measured. Potentiation of the agonist response of mGluR5 by the compounds in the present invention was observed as an increase in response to non-maximal concentrations of agonist (here, glutamate) in the presence of compound compared to the response to agonist in the absence of compound.
The above described assay operated in two modes. In the first mode, a range of concentrations of the present compounds were added to cells, followed by a single fixed concentration of agonist. If a compound acted as a potentiator, an EC50 value for potentiation and a maximum extent of potentiation by the compound at this concentration of agonist was determined by non-linear curve fitting. In the second mode, several fixed concentrations of the present compounds were added to various wells on a plate, followed by a range of concentrations of agonist for each concentration of present compound; the EC50 values for the agonist at each concentration of compound were determined by non-linear curve fitting. A decrease in the EC50 value of the agonist with increasing concentrations of the present compounds (a leftward shift of the agonist concentration-response curve) is an indication of the degree of mGluR5 potentiation at a given concentration of the present compound. An increase in the EC50 value of the agonist with increasing concentrations of the present compounds (a rightward shift of the agonist concentration-response curve) is an indication of the degree of mGluR5 antagonism at a given concentration of the present compound. The second mode also indicates whether the present compounds also affect the maximum response to mGluR5 to agonists.
Human embryonic kidney (HEK) cells transfected with rat mGluR5 were plated in clear-bottomed, poly-D-lysine-coated assay plates in glutamate-glutamine-free medium growth and incubated overnight at 37° C. in 5% CO2. The following day, cells were loaded with 2 μM calcium indicator dye, fluo-4 AM, for 1 h at 37° C. Dye was removed and replaced with assay buffer containing 1× Hanks balanced salt solution (Invitrogen, Carlsbad, Calif.), 20 mM HEPES, and 2.5 mM probenecid, pH 7.4. Cell plates were then loaded into the Functional Drug Screening System 6000 (FDSS 6000, Hamamatsu, Japan). After establishment of a fluorescence baseline for twelve seconds, the compounds of the present invention were added to the cells, and the response in cells was measured. Five minutes later, an mGluR5 agonist (e.g., glutamate, 3,5-dihydroxyphenylglycine, or quisqualate) was added to the cells, and the response of the cells was measured during a 1 minute incubation with agonists. Typically, the effect of test compounds of the present invention was on an EC20 concentration of glutamate was measured. All test compounds were dissolved and diluted in 100% DMSO and then serially diluted into assay buffer for a 2.5× stock in 0.25% DMSO; stock compounds were then added to the assay for a final DMSO concentration of 0.1%. Calcium fluorescence measures were recorded as fold over basal fluorescence; raw data was then normalized to the maximal response to agonist. Potentiation of the agonist response of mGluR5 by the compounds in the present invention was observed as an increase in response to non-maximal concentrations of agonist (here, glutamate) in the presence of compound compared to the response to agonist in the absence of compound. […]

[1] = Table 1, EC50 for potentiating the mGluR5 receptor, read-out: EC50
[2] = EC50, Table 1, EC50 for potentiating the mGluR5 receptor

T1 sequence (P31424 21-1203): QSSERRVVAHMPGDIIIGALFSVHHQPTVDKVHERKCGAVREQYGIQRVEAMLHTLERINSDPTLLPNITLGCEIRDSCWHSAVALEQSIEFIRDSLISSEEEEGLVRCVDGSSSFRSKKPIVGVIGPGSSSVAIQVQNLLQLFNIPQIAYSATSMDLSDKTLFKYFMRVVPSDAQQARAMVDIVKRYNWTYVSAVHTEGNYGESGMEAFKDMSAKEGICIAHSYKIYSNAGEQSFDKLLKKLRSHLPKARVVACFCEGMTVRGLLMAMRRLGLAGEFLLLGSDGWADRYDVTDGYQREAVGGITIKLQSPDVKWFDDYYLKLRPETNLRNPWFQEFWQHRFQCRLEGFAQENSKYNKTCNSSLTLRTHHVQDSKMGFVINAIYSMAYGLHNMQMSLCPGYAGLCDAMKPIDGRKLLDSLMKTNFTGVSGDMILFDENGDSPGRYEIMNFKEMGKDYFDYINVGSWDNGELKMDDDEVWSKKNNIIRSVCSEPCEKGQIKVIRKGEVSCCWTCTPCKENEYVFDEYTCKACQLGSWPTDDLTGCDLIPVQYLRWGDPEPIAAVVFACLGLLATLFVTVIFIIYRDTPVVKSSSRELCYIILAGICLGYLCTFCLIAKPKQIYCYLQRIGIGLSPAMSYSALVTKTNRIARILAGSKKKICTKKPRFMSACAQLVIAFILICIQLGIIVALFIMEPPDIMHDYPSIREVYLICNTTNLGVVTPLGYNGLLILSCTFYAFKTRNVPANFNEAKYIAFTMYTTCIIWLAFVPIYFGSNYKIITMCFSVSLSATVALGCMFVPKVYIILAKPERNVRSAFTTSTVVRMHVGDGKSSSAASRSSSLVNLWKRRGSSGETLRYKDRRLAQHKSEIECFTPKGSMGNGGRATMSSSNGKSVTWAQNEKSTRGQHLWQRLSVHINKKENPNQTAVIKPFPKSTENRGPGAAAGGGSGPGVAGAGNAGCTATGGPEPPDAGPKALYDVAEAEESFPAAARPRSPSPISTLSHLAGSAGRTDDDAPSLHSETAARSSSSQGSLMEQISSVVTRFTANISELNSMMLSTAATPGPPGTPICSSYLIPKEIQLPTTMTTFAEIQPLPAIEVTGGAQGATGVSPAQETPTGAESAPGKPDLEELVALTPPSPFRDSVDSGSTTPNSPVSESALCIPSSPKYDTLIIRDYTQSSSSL

SMILES	EC50 [1] [µM]	EC50 [2] [µM]
N#Cc1ccccc1N1CCN(C(=O)c2ccc(C#Cc3ccccc3)cc2)CC1	4.2	
O=C(c1ccc(C#Cc2ccccc2)cc1)N1CCC(n2c(=O)[nH]c3ccccc32)CC1 [1-(1-(4-(phenylethynyl)benzoyl)piperidin-4-yl)-1H-benzo[d]imidazol-2(3H)-one]	1.47	
CC(=O)C1(c2ccccc2)CCN(C(=O)c2ccc(C#Cc3ccccc3)cc2)CC1 [1-(4-phenyl-1-(4-(phenylethynyl)benzoyl)piperidin-4-yl)ethanone]		1.25
COCCCNC(=O)c1ccc(-c2nc(-c3ccc(F)cc3)no2)cc1 [4-(3-(4-fluorophenyl)-1,2,4-oxadiazol-5-yl)-N-(3-methoxypropyl)benzamide]	1.12	
CCCNC(=O)c1ccc(-c2nc(-c3ccc(F)cc3)no2)cc1 [4-(3-(4-fluorophenyl)-1,2,4-oxadiazol-5-yl)-N-propylbenzamide]	2.03	
CCCNC(=O)c1ccc(-c2nc(-c3ccccc3)no2)cc1 [4-(3-phenyl-1,2,4-oxadiazol-5-yl)-N-propylbenzamide]	2.27	
O=C(NCCN1CCCCC1)c1ccc(C#Cc2ccccc2)cc1 [4-(phenylethynyl)-N-(2-(piperidin-1-yl)ethyl)benzamide]	1.79	
CCCNC(=O)c1ccc(C#Cc2ccccc2)cc1 [4-(phenylethynyl)-N-propylbenzamide]	0.0147	
N#CC1(c2ccccc2)CCN(C(=O)c2ccc(C#Cc3ccccc3)cc2)CC1 [4-phenyl-1-(4-(phenylethynyl)benzoyl)piperidine-4-carbonitrile]		1.14
O=C(c1ccc(C#Cc2ccccc2)cc1)n1c(=O)n(C2CCNCC2)c2cc(Cl)ccc21 [5-chloro-1-(4-(phenylethynyl)benzoyl)-3-(piperidin-4-yl)-1H-benzo[d]imidazol-2(3H)-one]	3.72	
CC1CN(C(=O)c2ccc(C#Cc3ccccc3)cc2)CC(C)O1 (centres unmarked) [(2,6-dimethylmorpholino)(4-(phenylethynyl)phenyl)methanone]	0.0889	
O=C(c1ccc(C#Cc2ccccc2)cc1)N1CCCC(O)C1 (centres unmarked) [(3-hydroxypiperidin-1-yl)(4-(phenylethynyl)phenyl)methanone]	0.134	
O=C(c1ccc(C#Cc2ccccc2)cc1)N1CCN(c2ccccc2F)CC1 [(4-(2-fluorophenyl)piperazin-1-yl)(4-(phenylethynyl)phenyl)methanone]	5.14	
COCCNC1CCN(C(=O)c2ccc(C#Cc3ccccc3)cc2)CC1 [(4-(2-methoxyethylamino)piperidin-1-yl)(4-(phenylethynyl)phenyl)methanone]	1.19	
COc1ccccc1N1CCN(C(=O)c2ccc(C#Cc3ccccc3)cc2)CC1 [(4-(2-methoxyphenyl)piperazin-1-yl)(4-(phenylethynyl)phenyl)methanone]	2.1	
O=C(c1ccc(C#Cc2ccccc2)cc1)N1CCC(NCCN2CCOCC2)CC1 [(4-(2-morpholinoethylamino)piperidin-1-yl)(4-(phenylethynyl)phenyl)methanone]	0.383	
O=C(c1ccc(-c2nc(-c3ccc(F)cc3)no2)cc1)N1CCN(c2ccncc2)CC1 [(4-(3-(4-fluorophenyl)-1,2,4-oxadiazol-5-yl)phenyl)(4-(pyridin-4-yl)piperazin-1-yl)methanone]	4.21	
O=C(c1ccc(C#Cc2ccccc2)cc1)N1CCC(O)(c2ccc(Cl)cc2C(F)(F)F)CC1 [(4-(4-chloro-2-(trifluoromethyl)phenyl)-4-hydroxypiperidin-1-yl)(4-(phenylethynyl)phenyl)methanone]	0.477	
O=C(c1ccc(C#Cc2ccccc2)cc1)N1CCC(O)(c2ccc(Cl)cc2)CC1 [(4-(4-chlorophenyl)-4-hydroxypiperidin-1-yl)(4-(phenylethynyl)phenyl)methanone]	6.46	

SMILES	EC50 [1] [µM]	EC50 [2] [µM]
CN1CCN(C2CCN(C(=O)c3ccc(C#Cc4ccccc4)cc3)CC2)CC1 [(4-(4-methylpiperazin-1-yl)piperidin-1-yl)(4-(phenylethynyl)phenyl)methanone]	0.132	
O=C(c1ccc(C#Cc2ccccc2)cc1)N1CCC(N2CCC2)CC1 [(4-(azetidin-1-yl)piperidin-1-yl)(4-(phenylethynyl)phenyl)methanone]	1.11	
O=C(c1ccc(C#Cc2ccccc2)cc1)N1CCC(NC2CCC2)CC1 [(4-(cyclobutylamino)piperidin-1-yl)(4-(phenylethynyl)phenyl)methanone]	0.212	
O=C(c1ccc(C#Cc2ccccc2)cc1)N1CCC(NC2CCCCC2)CC1 [(4-(cyclohexylamino)piperidin-1-yl)(4-(phenylethynyl)phenyl)methanone]	0.078	
O=C(c1ccc(C#Cc2ccccc2)cc1)N1CCC(NCC2CC2)CC1 [(4-(cyclopropylmethylamino)piperidin-1-yl)(4-(phenylethynyl)phenyl)methanone]	2.79	
CCCC(C)NC1CCN(C(=O)c2ccc(C#Cc3ccccc3)cc2)CC1 (centres unmarked) [(4-(pentan-2-ylamino)piperidin-1-yl)(4-(phenylethynyl)phenyl)methanone]	0.0595	
O=C(c1ccc(C#Cc2ccccc2)cc1)N1CCC(N2CCN(c3ccncc3)CC2)CC1 [(4-(phenylethynyl)phenyl)(4-(4-(pyridin-4-yl)piperazin-1-yl)piperidin-1-yl)methanone]	0.113	
O=C(c1ccc(C#Cc2ccccc2)cc1)N1CCN(c2ccccn2)CC1 [(4-(phenylethynyl)phenyl)(4-(pyridin-2-yl)piperazin-1-yl)methanone]	2.92	
O=C(c1ccc(C#Cc2ccccc2)cc1)N1CCN(c2ccncc2)CC1 [(4-(phenylethynyl)phenyl)(4-(pyridin-4-yl)piperazin-1-yl)methanone]	3.68	
O=C(c1ccc(C#Cc2ccccc2)cc1)N1CCC(N2CCCC2)CC1 [(4-(phenylethynyl)phenyl)(4-(pyrrolidin-1-yl)piperidin-1-yl)methanone]	3.73	
O=C(c1ccc(C#Cc2ccccc2)cc1)N1CCN(c2ccccc2)CC1 [(4-(phenylethynyl)phenyl)(4-phenylpiperazin-1-yl)methanone]	2.06	
O=C(c1ccc(C#Cc2ccccc2)cc1)N1CCNCC1 [(4-(phenylethynyl)phenyl)(piperazin-1-yl)methanone]	4.79	
O=C(c1ccc(C#Cc2ccccc2)cc1)N1CCC(O)(c2ccccc2)CC1 [(4-hydroxy-4-phenylpiperidin-1-yl)(4-(phenylethynyl)phenyl)methanone]	3.66	
CC(C)N1CCN(C(=O)c2ccc(C#Cc3ccccc3)cc2)CC1 [(4-isopropylpiperazin-1-yl)(4-(phenylethynyl)phenyl)methanone]	1.19	
CN1CCN(C(=O)c2ccc(C#Cc3ccccc3)cc2)CC1 [(4-methylpiperazin-1-yl)(4-(phenylethynyl)phenyl)methanone]	0.166	
O=C(c1ccc(/C=C/c2ccccc2)cc1)N1CCC(O)CC1 [(E)-(4-hydroxypiperidin-1-yl)(4-styrylphenyl)methanone]	1.97	
C[C@@H](CNC(=O)c1ccc(C#Cc2ccccc2)cc1)c1ccccc1 [(R)-4-(phenylethynyl)-N-(2-phenylpropyl)benzamide]	0.0349	
C[C@H](NC1CCN(C(=O)c2ccc(C#Cc3ccccc3)cc2)CC1)C1CCCCC1 [(S)-(4-(1-cyclohexylethylamino)piperidin-1-yl)(4-(phenylethynyl)phenyl)methanone]	0.129	
CCN1CCC[C@H]1CNC(=O)c1ccc(C#Cc2ccccc2)cc1 [(S)-N-((1-ethylpyrrolidin-2-yl)methyl)-4-(phenylethynyl)benzamide]	1.03	
